Experimental data taken from US3960877A, “N-monosubstituted-2,3-pyridinedicarboxamides, and related compounds” (priority 1974, dated 1976).

Columns and labels:
Type in all cases: in vivo
Alfalfa = experiment: Preemergence herbicidal activity, % control of plant growth; conditions: 16 pounds per acre
Procedure, shortened: (§1)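 Compound applied at 16 pounds per acre as roughly a 2 percent by weight acetone and/or alcohol solution, sprayed onto freshly seeded soil before any noticeable growth. About three weeks later, treated areas were visually compared with untreated controls and scored as percent growth control.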

Barnyard Grass = experiment: as above; conditions: barnyardgrass; 16 pounds per acre
Procedure, shortened: as §1

Cheatgrass = experiment: as above; conditions: 16 pounds per acre
Procedure, shortened: as §1

Chickweed = experiment: as above; conditions: pre-emergence, 504 h, 16 lb/acre, about 3 weeks
Procedure, shortened: as §1

Corn = experiment: as above; conditions: 16 pounds per acre
Procedure, shortened: as §1

Crabgrass = experiment: as above; conditions: 16 pounds per acre
Procedure, shortened: as §1

Cucumber = experiment: as above; conditions: 16 pounds per acre
Procedure, shortened: as §1

Curled Dock = experiment: as above; conditions: 16 pounds per acre
Procedure, shortened: as §1

Foxtail = experiment: as above; conditions: 16 pounds per acre
Procedure, shortened: as §1

Johnsongrass = experiment: as above; conditions: 16 pounds per acre
Procedure, shortened: as §1

Lambsquarters = experiment: as above; conditions: 16 pounds per acre
Procedure, shortened: as §1

Nutgrass = experiment: as above; conditions: pre-emergence, 504 h, 16 lb/acre, about 3 weeks
Procedure, shortened: as §1

Pigweed = experiment: as above; conditions: 16 pounds per acre
Procedure, shortened: as §1

Snapbeans = experiment: as above; conditions: pre-emergence, 504 h, 16 lb/acre, about 3 weeks
Procedure, shortened: as §1

Velvetleaf = experiment: as above; conditions: Abutilon theophrasti, pre-emergence, 504 h, 16 lb/acre, about 3 weeks
Procedure, shortened: as §1

Wild Oats = experiment: as above; conditions: 16 pounds per acre
Procedure, shortened: as §1

Yellow Rocket = experiment: as above; conditions: pre-emergence, 504 h, 16 lb/acre, about 3 weeks
Procedure, shortened: as §1

volunteer soybeans = experiment: Herbicidal activity at 16 pounds per acre, % control
Excerpt: (§2) In using the compound, seeds of the types of plants set forth in Table II were sown in fresh soil. In the preemergence test the soil was sprayed with a solution of the test compound immediately after the seeds were planted, and before any noticeable growth developed. The solution was about a 2 percent by weight solution of the compound in acetone and/or alcohol. The compound was applied at the rate of 16 pounds per acre of soil surface.
(§3) Approximately 3 weeks after spray application, the herbicidal activity of the compound was determined by visual observation of the treated area in comparison with untreated control areas. These observations are reported below in Table II wherein the average activity rating is reported as the percent control of plant growth.

[1] = system: undesirable plants of both the monocotyledonous and the dicotyledonous species; experiment: Herbicidal activity, general; conditions: in vivo
Excerpt: All of the 3-substituted compounds of the pyrido [3,2-d]pyrimidine-2,4(1H,3H)-dione and lumazine families made from intermediate amides produced by the method of this invention have an unexpectedly high order of herbicidal activity.
as §2, §3
In the postemergence test the soil and developing plants were sprayed approximately 2 weeks after the seeds were sown. The compound was applied at the rate of 8 pounds per acre from about a 2 percent by weight solution of the test compound in acetone and/or alcohol. The postemergence herbicidal activity was measured in the same way as the preemergence activity; i.e. visual observation approximately 11 days after spraying, and expressed as the percent control of plant growth.

CCn1c(=O)[nH]c2ncccc2c1=O [3-ethyl-pyrido[2,3-d]pyrimidine-2,4 (1H,3H)-dione]
80%: pest or weed control at 17933.6 g/ha (Chickweed) | pest or weed control at 17933.6 g/ha (Velvetleaf) | pest or weed control at 17933.6 g/ha (Yellow Rocket)
90%: pest or weed control at 17933.6 g/ha (Nutgrass)
comparatively low order: order of herbicidal activity [1]
100%: pest or weed control at 17933.6 g/ha (Snapbeans) | percent control (volunteer soybeans)
no significant control: herbicidal activity/control (Alfalfa) | herbicidal activity/control (Barnyard Grass) | herbicidal activity/control (Cheatgrass) | herbicidal activity/control (Corn) | herbicidal activity/control (Crabgrass) | herbicidal activity/control (Cucumber) | herbicidal activity/control (Curled Dock) | herbicidal activity/control (Foxtail) | herbicidal activity/control (Johnsongrass) | herbicidal activity/control (Lambsquarters) | herbicidal activity/control (Pigweed) | herbicidal activity/control (Wild Oats)
